Results reported in patent US9676715B2, “Bis-indolic derivatives, a process for preparing the same and their uses as a drug” (UNIVERSITE JOSEPH FOURIER, priority 2011, dated 2017).
≈ marks a conversion by molar mass, not a printed value.

Key:
[1] = test system: S. agalactiae (group B) ATCC 12400; experiment: MIC, microdilution method (9.1); assay type: cell-based, Streptococcus agalactiae; conditions: Streptococcus agalactiae, ATCC12400, 18 h, read-out: MIC
Outline: (§1)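 Broth microdilution per CLSI M07-A8 in Mueller Hinton broth, final inoculum 5×10^5 CFU/ml. Indolic compounds tested as two-fold serial dilutions, 0.50-128 mg/L final. Plates incubated at 37° C. in ambient air; fastidious species received 10% sheep blood and 5% CO2.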

S. mitis CIP 103335 = experiment: MIC, microdilution method (9.1); assay type: cell-based, Streptococcus mitis; conditions: Streptococcus mitis, CIP103335, 18 h, read-out: MIC
Outline: as §1

[2] = test system: S. epidermidis ATCC 12228; experiment: MIC, microdilution method (9.1); assay type: cell-based, Staphylococcus epidermidis; conditions: Staphylococcus epidermidis, ATCC12228, read after 18 h, read-out: MIC
Outline: as §1

[3] = test system: S. epidermidis CIP 103627; experiment: MIC, microdilution method (9.1); assay type: cell-based, Staphylococcus epidermidis; conditions: Staphylococcus epidermidis, CIP103627, read after 18 h, read-out: MIC
Outline: as §1

S. epidermidis CIP 81.55 = experiment: MIC, microdilution method (9.1); assay type: cell-based, Staphylococcus epidermidis; conditions: Staphylococcus epidermidis, CIP81, read after 18 h, read-out: MIC
Outline: as §1

S. pneumoniae ATCC 6303 = experiment: MIC, microdilution method (9.1); assay type: cell-based, Streptococcus pneumoniae; conditions: Streptococcus pneumoniae, ATCC6303, 10% sheep blood, 5% CO2, 18 h, read-out: MIC
Outline: as §1

S. aureus ATCC 9144 = experiment: MIC, microdilution method (9.1); assay type: cell-based, Staphylococcus aureus; conditions: Staphylococcus aureus, ATCC9144, read after 18 h, read-out: MIC
Outline: as §1

[4] = test system: S. aureus ATCC 33592 (MRSA); experiment: MIC, microdilution method (9.1); assay type: cell-based, Staphylococcus aureus; conditions: Staphylococcus aureus, read after 18 h, read-out: MIC
Outline: as §1

S. aureus ATCC 29213 = experiment: MIC, microdilution method (9.1); assay type: cell-based, Staphylococcus aureus; conditions: Staphylococcus aureus, ATCC29213, read after 18 h, read-out: MIC
Outline: as §1

S. aureus CIP 103428 = experiment: MIC, microdilution method (9.1); assay type: cell-based, Staphylococcus aureus; conditions: Staphylococcus aureus, CIP103428, read after 18 h, read-out: MIC
Outline: as §1

S. aureus ATCC 6538 = experiment: MIC, microdilution method (9.1); assay type: cell-based, Staphylococcus aureus; conditions: Staphylococcus aureus, ATCC6538, read after 18 h, read-out: MIC
Outline: as §1

S. aureus CIP 65.6 = experiment: MIC, microdilution method (9.1); assay type: cell-based, Staphylococcus aureus; conditions: Staphylococcus aureus, CIP65, read after 18 h, read-out: MIC
Outline: as §1

S. aureus SA-1199B = experiment: MIC, microdilution method (9.1); assay type: cell-based, Staphylococcus aureus; conditions: Staphylococcus aureus, SA1199B, 18 h
Outline: as §1

[5] = test system: S. aureus CIP 65.25 (MRSA); experiment: MIC, microdilution method (9.1); assay type: cell-based, Staphylococcus aureus; conditions: Staphylococcus aureus, read after 18 h, read-out: MIC
Outline: as §1

S. aureus ATCC 25923 = experiment: MIC, microdilution method (9.1); assay type: cell-based, Staphylococcus aureus; conditions: Staphylococcus aureus, ATCC25923, read after 18 h, read-out: MIC
Outline: as §1

[6] = test system: S. aureus ATCC 106414 (VISA); experiment: MIC, microdilution method (9.1); assay type: cell-based, Staphylococcus aureus; conditions: Staphylococcus aureus, read after 18 h, read-out: MIC
Outline: as §1

E. faecalis ATCC 29212 = experiment: MIC, microdilution method (9.1); assay type: cell-based, Enterococcus faecalis; conditions: Enterococcus faecalis, ATCC29212, 18 h, read-out: MIC
Outline: as §1

[7] = test system: Klebsiella pneumoniae API ATCC 35657; experiment: MIC, microdilution method (9.1); assay type: cell-based; conditions: ATCC35657, 18 h, read-out: MIC
Outline: as §1

[8] = test system: Escherichia coli ATCC 25922; experiment: MIC, microdilution method (9.1); assay type: cell-based; conditions: ATCC25922, 18 h
Outline: as §1

[9] = test system: Listeria innocua CIP 80.11; experiment: MIC, microdilution method (9.1); assay type: cell-based; conditions: CIP80, 18 h, read-out: MIC
Outline: as §1

[10] = test system: Serratia marcescens CIP 103551; experiment: MIC, microdilution method (9.1); assay type: cell-based; conditions: CIP103551, 18 h
Outline: as §1

S. pneumoniae ATCC 49619 = experiment: MIC, microdilution method (9.1); assay type: cell-based; conditions: Streptococcus pneumoniae, ATCC49619, 10% sheep blood, 5% CO2, 18 h
Outline: as §1

[11] = test system: Enterobacter cloacae ATCC13047; experiment: MIC, microdilution method (9.1); assay type: cell-based; conditions: 18 h
Outline: as §1

[12] = test system: Pseudomonas aeruginosa CIP 5933; experiment: MIC, microdilution method (9.1); assay type: cell-based; conditions: CIP5933, 18 h, read-out: MIC
Outline: as §1

[13] = test system: Haemophilus influenzae ATCC 49766; experiment: MIC, microdilution method (9.1); assay type: cell-based; conditions: ATCC49766; Haemophilus influenzae ATCC 49766; 10% sheep blood, 5% CO2; 18 h; read-out: MIC
Outline: as §1

[14] = test system: Bacillus subtilis CIP 5262; experiment: MIC, microdilution method (9.1); assay type: cell-based; conditions: CIP5262, 18 h, read-out: MIC
Outline: as §1

[15] = test system: Acinetobacter baumanii ATCC 19606; experiment: MIC, microdilution method (9.1); assay type: cell-based; conditions: Acinetobacter baumannii, ATCC19606, 18 h, read-out: MIC
Outline: as §1

[16] = test system: 29 bacterial strains belonging to 17 different species; experiment: MIC determination, overall statements on the bacterial panel; assay type: cell-based; conditions: summary of MIC results
Method: The microdilution method recommended by the Clinical and Laboratory Standard Institute [M07-A8, Vol. 29, No. 2] was used. The activity of indolic compounds was tested against 29 bacterial strains belonging to 17 different species and 12 different genera (Staphylococcus, Streptococcus, Enterococcus, Listeria, Bacillus, Haemophilus, Escherichia, Klebsiella, Enterobacter, Serratia, Pseudomonas, and Acinetobacter). Bacterial inocula were prepared in Mueller Hinton broth (MH2, bioMérieux, Marcy L'Etoile, France), supplemented with 10% sheep blood for fastidious species (i.e., Streptococcus pneumoniae and Haemophilus influenzae). They were dispensed in 96 well microtiter plates (5×10^5 CFU/ml of final inoculum). Indolic compounds were added to the wells as to obtain two-fold serial concentrations (0.50-128 mg/L of final concentrations). Plates were incubated at 37° C. in ambient air, or at 37° C. in 5% CO2 enriched atmosphere for fastidious species. […] Drug-free cultures served as growth controls. Cultures receiving gentamicin, ciprofloxacin or cefotaxime served as positive controls.

[17] = test system: S. pyogenes (group A) CIP 104226; experiment: MIC, microdilution method (9.1); assay type: cell-based, Streptococcus pyogenes; conditions: Streptococcus pyogenes, CIP104226, 18 h, read-out: MIC
Outline: as §1

E. faecium CIP 54.32 = experiment: MIC, microdilution method (9.1); assay type: cell-based, Enterococcus faecium; conditions: Enterococcus faecium, CIP54, 18 h, read-out: MIC
Outline: as §1

CC(C)(C)OC(=O)NCC(NC(=O)c1cccnc1)c1c[nH]c2ccc(Br)cc12 (stereo not drawn) [Compound 10, tert-Butyl (2-(5-bromo-1H-indol-3-yl)-2-(nicotinamido)ethyl) carbamate]
MIC [1]: 128 µg/mL (≈ 279 µM) | MIC (S. mitis CIP 103335): > 128 µg/mL | MIC [2]: > 128 µg/mL | MIC [3]: > 128 µg/mL | MIC (S. epidermidis CIP 81.55): > 128 µg/mL | MIC (S. pneumoniae ATCC 6303): 128 µg/mL (≈ 279 µM) | MIC (S. aureus ATCC 9144): > 128 µg/mL | MIC [4]: > 128 µg/mL | MIC (S. aureus ATCC 29213): 128 µg/mL (≈ 279 µM) | MIC (S. aureus CIP 103428): 64 µg/mL (≈ 139 µM) | MIC (S. aureus ATCC 6538): 64 µg/mL (≈ 139 µM) | MIC (S. aureus CIP 65.6): > 128 µg/mL | MIC (S. aureus SA-1199B): 64 µg/mL (≈ 139 µM) | MIC [5]: > 128 µg/mL | MIC (S. aureus ATCC 25923): > 128 µg/mL | MIC [6]: > 128 µg/mL | MIC (E. faecalis ATCC 29212): > 128 µg/mL | MIC [7]: > 128 µg/mL | MIC [8]: > 128 µg/mL | MIC [9]: > 128 µg/mL | MIC [10]: > 128 µg/mL | MIC (S. pneumoniae ATCC 49619): 128 µg/mL (≈ 279 µM) | MIC [11]: > 128 µg/mL | MIC [12]: > 128 µg/mL | MIC [13]: > 128 µg/mL | MIC [14]: 128 µg/mL (≈ 279 µM) | MIC [15]: > 128 µg/mL | intrinsic antibacterial activity (in words) [16]: lack of intrinsic antibacterial activity | MIC [17]: 128 µg/mL (≈ 279 µM) | MIC (E. faecium CIP 54.32): > 128 µg/mL
